Positions count from the first letter of the chain named.

These results are taken from doi:10.1101/2022.05.18.492512v2 (biorxiv, 2022).

Assay [1] deals with T1, ABCG5/G8 (Homo sapiens, UniProt Q9H221+Q9H222, Q9H222:A540F).
T1 sequence (Q9H222 1-651 A540F): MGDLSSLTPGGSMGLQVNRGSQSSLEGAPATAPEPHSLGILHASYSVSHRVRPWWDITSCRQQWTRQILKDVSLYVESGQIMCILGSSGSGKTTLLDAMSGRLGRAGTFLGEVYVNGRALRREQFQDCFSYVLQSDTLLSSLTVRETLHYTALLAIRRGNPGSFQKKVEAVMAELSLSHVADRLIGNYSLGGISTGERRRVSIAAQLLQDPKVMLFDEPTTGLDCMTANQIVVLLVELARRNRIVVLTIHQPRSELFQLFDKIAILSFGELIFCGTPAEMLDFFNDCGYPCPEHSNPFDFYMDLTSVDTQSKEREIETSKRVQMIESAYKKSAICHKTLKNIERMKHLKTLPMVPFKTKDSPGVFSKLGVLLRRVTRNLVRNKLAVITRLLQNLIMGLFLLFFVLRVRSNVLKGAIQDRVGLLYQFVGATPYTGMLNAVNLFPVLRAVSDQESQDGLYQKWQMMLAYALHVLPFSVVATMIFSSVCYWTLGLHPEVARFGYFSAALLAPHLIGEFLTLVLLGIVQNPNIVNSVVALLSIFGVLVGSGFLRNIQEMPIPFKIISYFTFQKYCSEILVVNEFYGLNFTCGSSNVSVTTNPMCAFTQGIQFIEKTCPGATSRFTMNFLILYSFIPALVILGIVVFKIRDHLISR
T1 sequence (Q9H221 1-673): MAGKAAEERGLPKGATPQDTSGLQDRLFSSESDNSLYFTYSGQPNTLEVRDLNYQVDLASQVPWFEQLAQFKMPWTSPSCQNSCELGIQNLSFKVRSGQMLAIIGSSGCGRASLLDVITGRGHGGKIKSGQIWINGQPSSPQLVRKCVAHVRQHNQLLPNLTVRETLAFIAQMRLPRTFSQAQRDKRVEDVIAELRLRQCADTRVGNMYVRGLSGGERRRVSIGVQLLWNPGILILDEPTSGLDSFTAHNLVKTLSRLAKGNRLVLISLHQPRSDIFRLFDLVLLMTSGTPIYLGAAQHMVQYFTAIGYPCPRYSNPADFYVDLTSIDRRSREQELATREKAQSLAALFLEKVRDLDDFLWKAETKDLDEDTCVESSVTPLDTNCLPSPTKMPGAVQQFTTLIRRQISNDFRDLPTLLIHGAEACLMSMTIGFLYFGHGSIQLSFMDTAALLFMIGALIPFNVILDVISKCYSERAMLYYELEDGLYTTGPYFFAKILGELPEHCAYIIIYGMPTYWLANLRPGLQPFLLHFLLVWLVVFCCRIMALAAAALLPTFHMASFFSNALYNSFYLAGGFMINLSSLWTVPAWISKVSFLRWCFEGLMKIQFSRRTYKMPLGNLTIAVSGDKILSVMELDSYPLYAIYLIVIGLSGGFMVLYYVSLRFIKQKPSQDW
As to the kind of experiment: [3H]cholesterol binding, Ni-NTA bead pull-down, scintillation counting.

For assay [2], the target named is T2, ABCG5/G8 (Homo sapiens, UniProt Q9H221+Q9H222).
T2 sequence (Q9H222 1-651): T1 sequence (Q9H222 1-651 A540F) with F540A
T2 sequence (Q9H221 1-673): T1 sequence (Q9H221 1-673)
Described as above.

The term Kd denotes the equilibrium constant for the complex coming apart. Lower therefore signals higher affinity. In the case of `CC(C)CCC[C@@H](C)[C@H]1CC[C@H]2[C@@H]3CC=C4C[C@@H](O)CC[C@]4(C)[C@H]3CC[C@]12C` [cholesterol], the Kd at ABCG5/G8 [1] is 1550 ± 10 nM; at ABCG5/G8 [2] it was 1460 ± 280 nM.
